Tests used:
[1] = system: human embryonic stem cell derived neural stem cells (NSCs); assay: Neural stem cell proliferation assay (neurogenesis assay, ATP levels by CellTiterGlo); type: cell-based; conditions: 96 h, concentration at which 150% activity of control (100%) is reached, NSC proliferation, ATP levels after 4 days incubation, dose response 8 μM to 8 nM
Description: Neural Stem Cell Proliferation Assay
Neurogenic properties of small molecules are determined based on the proliferation of human embryonic stem cell derived neural stem cells (NSCs) which were derived via a dual smad inhibition as previously described (Chambers, S. M., et al., Highly efficient neural conversion of human ES and iPS cells by dual inhibition of SMAD signaling, Nature biotechnology, 2009. 27(3): p. 275-80.)
Compounds respond is measured by the increase in cells based on ATP levels (Promega:CellTiterGlo®) after an incubation period of 4 days.
NSCs are thawed and expanded over 3 passages. On the 14th day, NSCs are seeded in Polyornithin/Laminin coated 384 well plates at a cell density of 21′000 cells/cm^2 in a media volume of 38 μl. 4 hours after cell seeding, compound solutions are added at a volume of 2 μl. Stock solutions of the compounds (water, 5% DMSO) are diluted to obtain a dose response (11 points, dilution factor is 2), ranging from 8 μM to 8 nM. Controls are run to consistently determine the neurogenic properties of the cells:
Negative (neutral) control is cell culture Media (final DMSO concentration: 0.25%).
1. cell culture Media+100 ng/ml FGF2 (final DMSO concentration: 0.1%)
2. cell culture Media+20 ng/ml EGF (final DMSO concentration: 0.1%)
3. cell culture Media+100 ng/ml Wnt3a (final DMSO concentration: 0.1%)
After 4 days incubation at 37° C., 5% CO2, the amount of ATP per well is quantified. The ATP concentration is proportional to the cell number. ATP is quantified by using the Promega CellTiterGlo® kit. The CellTiterGlo® reagents contain a cell lysis buffer, a thermo stable luciferase (UltraGlo™ recombinant luciferase), magnesium and luciferin. Luciferin reacts with ATP producing oxyluciferin, AMP and light. The luminescence signal is proportional to the ATP content.
The value of negative (neutral) control is determined for each assay plate by taking the average of 16 negative control wells. The neurogenic compound response is calculated for each compound as (compound/Negative Control)*100.
The values of EC150 from the dose response curve are determined for each test compound. The EC150 is the compound concentration at which 150% activity of control (100%) is reached.

Compound | melting point | EC (150% of control) [1]
Cc1cc(F)cc2cc3n(c12)CCNC3=O [Example 2, 8-Fluoro-6-methyl-3,4-dihydro-2H-pyrazino[1,2-a]indol-1-one] | 250.5 °C | 0.17 µM
Cc1c2n(c3c(CC(C)C)cc(C#N)cc13)CCCNC2=O [Example 34, 11-Methyl-7-(2-methylpropyl)-1-oxo-2,3,4,5-tetrahydro-[1,4]diazepino[1,2-a]indole-9-carbonitrile] | 235 °C | 0.13 µM
Cc1c2n(c3c(OC(F)(F)F)cc(C#N)cc13)CCNC2=O [Example 30, 10-Methyl-1-oxo-6-(trifluoromethoxy)-3,4-dihydro-2H-pyrazino[1,2-a]indole-8-carbonitrile] | 253 °C | 0.11 µM
Cc1cc(F)cc2cc3n(c12)CCCNC3=O [Example 1, 9-Fluoro-7-methyl-2,3,4,5-tetrahydro-[1,4]diazepino[1,2-a]indol-1-one] | 198 °C | 0.21 µM
N#Cc1cc(N2CCS(=O)(=O)CC2)c2c(c1)cc1n2CCCNC1=O [Example 43, 7-(1,1-Dioxo-1,4-thiazinan-4-yl)-1-oxo-2,3,4,5-tetrahydro-[1,4]diazepino[1,2-a]indole-9-carbonitrile] | 404.5 °C | 0.98 µM
Cc1cc(Cl)cc2cc3n(c12)CCCNC3=O [Example 28, 9-Chloro-7-methyl-2,3,4,5-tetrahydro-[1,4]diazepino[1,2-a]indol-1-one] | 207 °C | 4.1 µM
Cc1c2n(c3c(CC(C)C)cc(Cl)cc13)CCNC2=O [Example 14, 8-Chloro-6-isobutyl-10-methyl-3,4-dihydro-2H-pyrazino[1,2-a]indol-1-one] | 199 °C | 0.19 µM
Cc1c2n(c3c(C)cc(C#N)cc13)CCCNC2=O [Example 35, 7,11-Dimethyl-1-oxo-2,3,4,5-tetrahydro-[1,4]diazepino[1,2-a]indole-9-carbonitrile] | 255 °C | 3.19 µM
CC(C)Cc1cc(Cl)cc2cc3n(c12)CCCNC3=O [Example 25, 9-Chloro-7-(2-methylpropyl)-2,3,4,5-tetrahydro-[1,4]diazepino[1,2-a]indol-1-one] | 186 °C | 1.15 µM

More lines, main results first:

melting point | Compound | EC (150% of control) [1]
230 °C | Cc1c2n(c3ccc(F)cc13)CCNC2=O [Example 4, 8-Fluoro-10-methyl-3,4-dihydro-2H-pyrazino[1,2-a]indol-1-one] | 0.31 µM
178 °C | Cc1c2n(c3c(Cc4ccc(F)cc4)cc(F)cc13)CCNC2=O [Example 15, 8-Fluoro-6-(4-fluoro-benzyl)-10-methyl-3,4-dihydro-2H-pyrazino[1,2-a]indol-1-one] | 0.16 µM
189 °C | Cc1c2n(c3c(CC(C)C)cc(F)cc13)CCNC2=O [Example 3, 8-Fluoro-6-isobutyl-10-methyl-3,4-dihydro-2H-pyrazino[1,2-a]indol-1-one] | 0.009 µM
194 °C | Cc1c2n(c3c(CCCC#N)cc(F)cc13)CCNC2=O [Example 13, 4-(8-Fluoro-10-methyl-1-oxo-1,2,3,4-tetrahydro-pyrazino[1,2-a]indol-6-yl)-butyronitrile] | 0.31 µM

From US9586966B2, “Piperazino[1,2-a]indol-1-ones and [1,4]diazepino[1,2-a]indol-one” (Hoffmann-La Roche Inc., priority 2013, dated 2017)
